Results reported in US5219740A, “Retroviral gene transfer into diploid fibroblasts for gene therapy” (Fred Hutchinson Cancer Research Center, priority 1987, dated 1993).

Tests used:
HDF 79-81 = test: Drug concentration needed for complete cell killing; type: cell-based, human; details: Adult HDF 79-81, scored after 10 days
Experimental: (§1) Three drugs were tested for their ability to kill human diploid fibroblasts (HDF): the neomycin analogue G418, Hygromycin-B (Hygro), and Methotrexate (Mtx). Four HDF lines were isolated from skin biopsies of normal human donors: HDF 78-18, from a […] fetus; HDF 1-85, from newborn foreskin; HDF 79-81, from a person; and HDF 72-46, from a person. The four fibroblast lines were isolated using standard methods (Meth. Cell Biol. 219:255-276, 1980, hereby incorporated by reference) and were maintained in culture for 22 to 31 population doublings using Dulbecco-Vogt Modified Eagles Medium (D MEM) supplemented with 10% fetal bovine serum (FBS). NIH 3T3 immortalized mouse fibroblasts served as a control.
(§2) Cells were seeded at 10^4 per 3.5-cm dish in D MEM plus 10% FBS and drug, except for Mtx selection where 10% dialyzed FBS was used. Drug-resistant cells were scored after 10 days.

HDF 78-18 = test: as above; type: cell-based, human; details: for Drug Concentrations Needed For Complete Cell Killing: Fetal HDF 78-18, scored after 10 days
Experimental: as §1, §2

HDF 1-85 = test: as above; type: cell-based, human; details: Newborn HDF 1-85, scored after 10 days
Experimental: as §1, §2

HDF 72-46 = test: as above; type: cell-based, human; details: Adult HDF 72-46, scored after 10 days
Experimental: as §1, §2

NIH 3T3 = test: as above; type: cell-based, mouse; details: for Drug Concentrations Needed For Complete Cell Killing: Mouse NIH 3T3, scored after 10 days
Experimental: as §1, §2

[1] = test system: human diploid fibroblast cell lines; test: Drug killing, summary over HDF lines; type: cell-based
Experimental: as §1, §2

[2] = test system: normal human diploid fibroblasts; test: Adenosine effect on normal fibroblasts; type: cell-based; details: 2 mM
From the text: (§3) Referring to FIG. 5, the ADA vector LNSAL was made by inserting an ADA cDNA (Valerio, D., et al., Gene 31:147-153, 1984) linked to a SV40 early region enhancer/promoter downstream of the neo gene in N2. Helper-free virus was made by introduction of LNSAL into PA317 amphotropic retrovirus-packaging cells (ATCC No. CRL 9078), as described in Mol. Cell. Biol. 6:2895-2902, 1986, hereby incorporated by reference. […] Using either G418 or adenosine, the expression of either neo and the ADA gene was assayed in LNSAL-infected cells.

SF03 cells = test: Adenosine killing of ADA-deficient fibroblasts; type: cell-based, human
From the text: as §3

In the case of `CN(Cc1cnc2nc(N)nc(N)c2n1)c1ccc(C(=O)N[C@@H](CCC(=O)O)C(=O)O)cc1` [Mtx, Methotrexate], the “Drug Concentrations Needed For Complete Cell Killing” value (HDF 79-81; 10% dialyzed FBS) is reported as over 10 µM, the “Drug Concentrations Needed For Complete Cell Killing” value (HDF 78-18; 10% dialyzed FBS) is reported as over 1000 µM and the “colony formation at the highest concentration of Mtx used” value (HDF 78-18; HDF 78-18, viable cells remained after 15 days of selection) is reported as “did not form colonies”. The “Drug Concentrations Needed For Complete Cell Killing” value (HDF 1-85; 10% dialyzed FBS) was over 1000 µM, the “Drug Concentrations Needed For Complete Cell Killing” value (HDF 72-46; 10% dialyzed FBS) was over 1000 µM and the “Drug Concentrations Needed For Complete Cell Killing” value (NIH 3T3; 10% dialyzed FBS) was 0.1 µM. For the same compound, the “concentration that efficiently killed the cells” value (NIH 3T3; NIH 3T3 cells) was 10^-7 M, the “colony formation at the highest concentration of Mtx used” value ([1]; all HDF lines with the exception of HDF 78-18) was “formed colonies” and the “concentration to which the cell lines were resistant to killing” value ([1]; human diploid fibroblast cell lines) was > 10^-5 M. The “concentration to which the cell lines were resistant to killing” value ([1]; most human diploid fibroblast cell lines) was “more than 10^-3 M”.

For `Nc1ncnc2c1ncn2[C@@H]1O[C@H](CO)[C@@H](O)[C@H]1O` [adenosine], the “effect on the cells” value [2] was “no effect” and the “concentration that kills the cells” value (SF03 cells) was 2 mM.

With `CNC1C(O)C(OC2C(N)CC(N)C(OC3OC(C(C)O)C(O)C(O)C3N)C2O)OCC1(C)O` (centres unmarked) [Vector G418] the “Drug Concentrations Needed For Complete Cell Killing” value (HDF 79-81; weight of dry powder) was 1000 µg/mL, the “Drug Concentrations Needed For Complete Cell Killing” value (HDF 78-18; weight of dry powder) was 500 µg/mL and the “Drug Concentrations Needed For Complete Cell Killing” value (HDF 1-85; weight of dry powder) was 500 µg/mL. For the same compound, the “Drug Concentrations Needed For Complete Cell Killing” value (HDF 72-46; weight of dry powder) was 500 µg/mL and the “Drug Concentrations Needed For Complete Cell Killing” value (NIH 3T3; weight of dry powder) was 1000 µg/mL.
